target: Human recombinant Histone Deacetylase 8 (HDAC8) (Homo sapiens (Human), UniProt Q9BY41); experiment: HDAC8 Enzymatic Assay (HDAC-Glo I/II luminescence); assay type: biochemical; conditions: HDAC8; read-out: IC50
Protocol: HDAC-Glo™ I/II Assay Kit was purchased from Promega Corporation (Madison, Wis.), including the following components: HDAC-Glo I/II Buffer (25 mM Tris buffer, pH 8.0, supplemented with 137 mM: NaCl, 2.7 mM KCl, 1% v/v Triton X-100 and 1 mM: MgCl2), luminogenic substrates Boc-GAK(Ac)-aminoluciferin (HDAC-Glo I/II substrate), proprietary developer reagent (containing trypsin). Human recombinant Histone Deacetylase 8 (HDAC8) was purchased from Enzo Life Sciences (Plymouth Meeting, Pa.).
The HDAC8 reaction was performed at room temperature in white 384-well polystyrene, flat-bottom microtiter plate (Greiner Bio-one, Monroe, N.C.) in a final volume of 20 μL. Test compounds were first diluted serially in DMSO and 100 nL were transferred to the plate wells by Echo 550 (Labcyte, Sunnyvale, Calif.) before the addition of other reaction components. The final concentration of DMSO in the assay was 0.5%. The HDAC-Glo I/II assay reagent was prepared by rehydration of lyophilized HDAC-Glo I/II substrate in 10 mL. HDAC-Glo I/II assay buffer followed with the addition of 10 μL of developer reagent. 10 uL of 3 nM HDAC8 in the HDAC-Glo I/II assay buffer were first dispensed into the microliter plate containing the compounds and incubated at room temperature for 30 min. The reactions were initiated with the addition of 10 uL HDAC-Glo I/II assay reagent with Multidrop (Thermo, Waltham, Mass.). The final concentration of HDAC8 and HDAC-Glo I/II substrate in the reaction were 1.5 nM and 50 μM, respectively. The assay plate was mixed for 1 min by orbital shaking (500 rpm) and centrifuged for 1 min at 1500 rpm. After 15 min at room temperature, luminescence signals were measured on TopCount (Perkin Elmer). Wells with no compound served as the positive controls and wells containing no HDAC8 were used as negative controls. IC50 determination was performed by fitting the curve of percentage control activity versus the log of the compound concentration using the GraphPad Prism 6.0 software.

Chain of Human recombinant Histone Deacetylase 8 (HDAC8) (Q9BY41 whole entry): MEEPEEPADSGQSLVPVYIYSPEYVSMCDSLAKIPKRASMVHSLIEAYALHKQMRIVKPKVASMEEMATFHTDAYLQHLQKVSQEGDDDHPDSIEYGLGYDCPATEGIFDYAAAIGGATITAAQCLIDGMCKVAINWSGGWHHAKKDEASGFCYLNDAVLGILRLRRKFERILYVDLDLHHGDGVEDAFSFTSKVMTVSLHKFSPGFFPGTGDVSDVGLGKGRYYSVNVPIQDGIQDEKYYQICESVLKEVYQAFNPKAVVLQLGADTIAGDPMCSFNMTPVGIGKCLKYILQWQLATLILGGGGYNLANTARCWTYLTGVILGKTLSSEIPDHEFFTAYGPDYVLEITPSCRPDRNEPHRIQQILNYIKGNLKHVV

| IC50 | SMILES |
| --- | --- |
| 1170 nM | O=C(NO)C(Cc1ccccc1)n1cc2cccc(C(=O)N3CCOCC3)c2n1 (centres unmarked) [Compound I-0173, N-hydroxy-2-[7-(morpholin-4-ylcarbonyl)-2H-indazol-2-yl]-3-phenylpropanamide] |
| 134 nM | O=C(NO)C(Cc1ccccc1)n1nc2ccc(-c3ccccc3)cc2c1C#CC1CC1 (centres unmarked) [Compound I-0025, 2-[3-(Cyclopropylethynyl)-5-phenyl-2H-indazol-2-yl]-hydroxy-3-phenylpropanamide] |
| 717 nM | CC1CCN(c2cccc3nn(C(Cc4ccccc4)C(=O)NO)cc23)CC1 (centres unmarked) [Compound I-0145, N-hydroxy-2-(4-(4-methylpiperidin-1-yl)-2H-indazol-2-yl)-phenylpropanamide] |

same assay, conditions: class symbols, Table 14; read-out: HDAC8 IC50

| IC50 | SMILES |
| --- | --- |
| 200 to 500 nM | O=C(NO)C(Cc1ccccc1)n1ncc2cc(-c3cncnc3)cnc21 (centres unmarked) [Compound I-0121, N-hydroxy-3-phenyl-2-(5-(pyrimidin-5-yl)-1H-pyrazolo[3,4-b]pyridin-1-yl)propanamide] |
| > 500 nM | O=C(NO)C(Cc1ccccc1)n1cc2cccc(C(=O)N3CCOCC3)c2n1 (centres unmarked) [Compound I-0173, N-hydroxy-2-[7-(morpholin-4-ylcarbonyl)-2H-indazol-2-yl]-3-phenylpropanamide] |
| 200 to 500 nM | O=C(NO)C(Cc1ccccc1)n1ncc2nc(-c3ccncc3)ccc21 (centres unmarked) [Compound I-0073, N-hydroxy-3-phenyl-2-(5-(pyridin-4-yl)-1H-pyrazolo[4,3-b]pyridin-1-yl)propanamide] |
| ≤ 50 nM | O=C(NO)C(Cc1ccccc1)n1nc2c(-c3cncnc3)cccc2c1C#CC1CC1 (centres unmarked) [Compound I-0156, 2-(3-(cyclopropylethynyl)-7-(pyrimidin-5-yl)-2H-indazol-2-yl)-N-hydroxy-3-phenylpropanamide] |
| 200 to 500 nM | NC(=O)c1ccc(-c2cnc3c(cnn3C(Cc3ccccc3)C(=O)NO)c2)cc1 (centres unmarked) [Compound I-0118, 4-(1-(1-(hydroxyamino)-1-oxo-3-phenylpropan-2-yl)-1H-pyrazolo[3,4-b]pyridin-5-yl)benzamide] |
| 200 to 500 nM | CC(C)Oc1ccc(-c2cccc3nn(C(Cc4ccccc4)C(=O)NO)cc23)cn1 (centres unmarked) [Compound I-0146, N-hydroxy-2-(4-(6-isopropoxypyridin-3-yl)-2H-indazol-2-yl)-3-phenylpropanamide] |
| ≤ 50 nM | O=C(NO)C(Cc1ccccc1)n1nc2c(c1C#CC1CC1)CCCC2 (centres unmarked) [Compound I-0206, 2-(3-(cyclopropylethynyl)-4,5,6,7-tetrahydro-2H-indazol-2-yl)-N-hydroxy-3-phenylpropanamide] |
| 200 to 500 nM | O=C(NO)C(Cc1ccccc1)n1cnc2ccccc21 (centres unmarked) [Compound I-0041, 2-(1H-benzo[d]imidazol-1-yl)-N-hydroxy-3-phenylpropanamide] |
| 200 to 500 nM | Cn1nccc1-c1cccc2nn(C(Cc3ccccc3)C(=O)NO)cc12 (centres unmarked) [Compound I-0061, N-hydroxy-2-(4-(1-methyl-1H-pyrazol-5-yl)-2H-indazol-2-yl)-3-phenylpropanamide] |
| 200 to 500 nM | Cn1cc(-c2cccc3cn(C(Cc4ccccc4)C(=O)NO)nc23)cn1 (centres unmarked) [Compound I-0109, N-hydroxy-2-(7-(1-methyl-1H-pyrazol-4-yl)-2H-indazol-2-yl)-3-phenylpropanamide] |
| > 500 nM | Cc1ccc2nn(C(Cc3ccccc3)C(=O)NO)cc2c1 (centres unmarked) [Compound I-0049, N-hydroxy-2-(5-methyl-2H-indazol-2-yl)-3-phenylpropanamide] |
| ≤ 50 nM | O=C(NCC1CCOCC1)c1cccc2cn(C(Cc3ccccc3)C(=O)NO)nc12 (centres unmarked) [Compound I-0177, 2-(1-(hydroxyamino)-1-oxo-3-phenylpropan-2-yl)-N-((tetrahydro-2H-pyran-4-yl)methyl)-2H-indazole-7-carboxamide] |
| > 500 nM | O=C(NO)C(Cc1ccccc1)c1cnc2c(-c3cncnc3)cccn12 (centres unmarked) [Compound I-0164, N-hydroxy-3-phenyl-2-(8-pyrimidin-5-ylimidazo[1,2-a]pyridin-3-yl)propanamide] |
| 200 to 500 nM | Cn1nccc1-c1ccc2nn(C(Cc3ccccc3)C(=O)NO)cc2c1 (centres unmarked) [Compound I-0034, N-hydroxy-2-(5-(1-methyl-1H-pyrazol-5-yl)-2H-indazol-2-yl)-3-phenylpropanamide] |
| 200 to 500 nM | O=C(NO)C(Cc1ccccc1)n1nc2c(Cl)cccc2c1I (centres unmarked) [Compound I-0135, 2-(7-chloro-3-iodo-2H-indazol-2-yl)-N-hydroxy-3-phenylpropanamide] |
| > 500 nM | O=C(NO)C(Cc1ccccc1)n1cc2cncc(I)c2n1 (centres unmarked) [Compound I-0054, N-hydroxy-2-(7-iodo-2H-pyrazolo[4,3-c]pyridin-2-yl)-3-phenylpropanamide] |
| > 500 nM | O=C(NO)C(Cc1ccccc1)n1ncc2cc(C3CC3)ccc21 (centres unmarked) [Compound I-0019, 2-(5-cyclopropyl-1H-indazol-1-yl)-N-hydroxy-3-phenylpropanamide] |

| IC50 | SMILES |
| --- | --- |
| > 500 nM | CN1CCN(Cc2cccc3cn(C(Cc4ccccc4)C(=O)NO)nc23)CC1 (centres unmarked) [Compound I-0188, N-hydroxy-2-(7-((4-methylpiperazin-1-yl)methyl)-2H-indazol-2-yl)-3-phenylpropanamide] |
| 50 to 200 nM | O=C(NO)C(Cc1ccccc1)n1ncc2cc(-c3cccnc3)ccc21 (centres unmarked) [Compound I-0104, N-hydroxy-3-phenyl-2-(5-(pyridin-3-yl)-1H-indazol-1-yl)propanamide] |
| 200 to 500 nM | O=C(NO)C(Cc1ccccc1)n1ncc2cc(Br)cnc21 (centres unmarked) [Compound I-0122, 2-(5-bromo-1H-pyrazolo[3,4-b]pyridin-1-yl)-N-hydroxy-3-phenylpropanamide] |
| 200 to 500 nM | O=C(NO)C(Cc1ccccc1)n1ncc2c(Cl)nccc21 (centres unmarked) [Compound I-0055, 2-(4-chloro-1H-pyrazolo[4,3-c]pyridin-1-yl)-N-hydroxy-3-phenylpropanamide] |
| 50 to 200 nM | N/C(=N\O)c1ccc(-c2ccc3nn(C(Cc4ccccc4)C(=O)NO)cc3c2)cc1 (centres unmarked) [Compound I-0033, (Z)-N-hydroxy-2-(5-(4-(N′-hydroxy-carbamimidoyl)phen-yl)-2H-indazol-2-yl)-3-phenylpropanamide] |
| ≤ 50 nM | Cc1n[nH]cc1-c1cccc2c(C#CC3CC3)n(C(Cc3ccccc3)C(=O)NO)nc12 (centres unmarked) [Compound I-0166, 2-(3-(cyclopropylethynyl)-7-(3-methyl-1H-pyrazol-4-yl)-2H-indazol-2-yl)-N-hydroxy-3-phenylpropanamide] |
| ≤ 50 nM | CNC(=O)c1ccc(-c2nccc3c(C#CC4CC4)n(C(Cc4ccccc4)C(=O)NO)nc23)cc1 (centres unmarked) [Compound I-0141, 4-(3-(cyclopropylethynyl)-2-(1-(hydroxyamino)-1-oxo-3-phenylpropan-2-yl)-2H-pyrazolo[3,4-c]pyridin-7-yl)-N-methylbenzamide] |
| 50 to 200 nM | O=C(NO)C(Cc1ccccc1)n1nc2ccc(-c3ccccc3)cc2c1C#CC1CC1 (centres unmarked) [Compound I-0025, 2-[3-(Cyclopropylethynyl)-5-phenyl-2H-indazol-2-yl]-hydroxy-3-phenylpropanamide] |
| 200 to 500 nM | O=C(NO)C(Cc1ccccc1)n1ncc2cc(-c3cncnc3)ncc21 (centres unmarked) [Compound I-0092, N-hydroxy-3-phenyl-2-(5-(pyrimidin-5-yl)-1H-pyrazolo[3,4-c]pyridin-1-yl)propanamide] |
| 200 to 500 nM | NC(=O)c1ccc(-c2cc3cnn(C(Cc4ccccc4)C(=O)NO)c3cn2)cc1 (centres unmarked) [Compound I-0089, 4-(1-(1-(hydroxyamino)-1-oxo-3-phenylpropan-2-yl)-1H-pyrazolo[3,4-c]pyridin-5-yl)benzamide] |
| ≤ 50 nM | O=C(NO)C(Cc1ccccc1)n1nc2ccc(-c3cncnc3)cc2c1C#CC1CC1 (centres unmarked) [Compound I-0030, 2-(3-(cyclopropylethynyl)-5-(pyrimidin-5-yl)-2H-indazol-2-yl)-N-hydroxy-3-phenylpropanamide] |
| 200 to 500 nM | O=C(NO)C(Cc1ccccc1)n1cc2ccc(Br)cc2n1 (centres unmarked) [Compound I-0004, 2-(6-bromo-2H-indazol-2-yl)-N-hydroxy-3-phenylpropanamide] |
| > 500 nM | O=C(NO)C(Cc1ccccc1)n1ncc2cc(-c3c(F)cccc3F)ncc21 (centres unmarked) [Compound I-0087, 2-(5-(2,6-difluorophenyl)-1H-pyrazolo[3,4-c]pyridin-1-yl)-N-hydroxy-3-phenylpropanamide] |
| > 500 nM | O=C(NO)C(Cc1ccccc1)n1cc2nc(Cl)ccc2n1 (centres unmarked) [Compound I-0077, 2-(5-chloro-2H-pyrazolo[4,3-b]pyridin-2-yl)-N-hydroxy-3-phenylpropanamide] |
| 200 to 500 nM | Cc1cccn2c(C(Cc3ccccc3)C(=O)NO)cnc12 (centres unmarked) [Compound I-0171, N-hydroxy-2-(8-methylimidazo[1,2-a]pyridin-3-yl)-3-phenylpropanamide] |
| > 500 nM | O=C(NO)C(Cc1ccccc1)n1ccc2cc(Cl)ncc21 (centres unmarked) [Compound I-0194, 2-(5-chloro-1H-pyrrolo[2,3-c]pyridin-1-yl)-N-hydroxy-3-phenylpropanamide] |

| SMILES | IC50 |
| --- | --- |
| CN1CC=C(c2cccc3nn(C(Cc4ccccc4)C(=O)NO)cc23)CC1 (centres unmarked) [Compound I-0057, N-hydroxy-2-(4-(1-methyl-1,2,3,6-tetrahydropyridin-4-yl)-2H-indazol-2-yl)-3-phenylpropanamide] | > 500 nM |
| CN1CC=C(c2cccc3c2cnn3C(Cc2ccccc2)C(=O)NO)CC1 (centres unmarked) [Compound I-0085, N-hydroxy-2-(4-(1-methyl-1,2,3,6-tetrahydropyridin-4-yl)-1H-indazol-1-yl)-3-phenylpropanamide] | 200 to 500 nM |
